Tested on: C57Bl/6J mice
Experiment: NAD+ metabolism in tissues after chronic NR feeding
Type: in vivo
Procedure: mRNA and mtDNA Analysis. Total RNA was prepared using TRIzol (Invitrogen) according to the manufacturer's instructions. RNA was treated with DNase, and 2 μg of RNA was used for reverse transcription (RT). cDNA was purified on QIAquick PCR cleanup columns (Qiagen, Valencia, Calif., USA). 50× diluted cDNA was used for RT-quantitative PCR (RT-VCR) VCR) reactions (Bai et al., 2007). The RT-qPCR reactions were performed using the Light-Cycler system (Roche Applied Science) and a qPCR Supermix (Qiagen) with the primers for mice summarized in Table 1 and 4, and with the primers for worms summarized on Table 7. mtDNA quantification was performed as described (Lagouge et al., 2006) with the primers indicated in Table 2 and 5.
Immunoprecipitation, SDS-PAGE, Western Blotting. Cells were lysed in lysis buffer (50 mM Tris, […], EDTA 1 mM, NP40 1%, nicotinamide 5 mM, Na-butyrate 1 in M, protease inhibitors pH7.4). Proteins were separated by SDS-PAGE and transferred onto nitrocellulose membranes. The origin of the primary and secondary antibodies used can be found as supplemental experimental procedures. Reactions were developed by enhanced chemiluminescence (Amersham, Little Chalfont, UK), PGC-1α, FOXO1 and Ndufa9 acetylation levels were analyzed by immunoprecipitation from cellular or nuclear lysates of tissues with anti-PGC-1α (Millipore), anti-FOXO1 (Cell Signaling, Danvers, Mass., USA) and anti-Ndufa9 (Abcam) antibody followed by Western blot using an acetyl-lysine antibody (Cell Signaling) that was normalized to total PGC-1a/FOXO1/Ndufa9 levels (Lagouge et al., 2006; Rodgers et al., 2005). In HEK293T cells HA-tagged PGC-1α was overexpressed and was immunoprecipitated using an anti-HA. In C2C12 myotubes, FLAG-HA tagged PGC-1α was introduced through adenoviral delivery 2 days before treatments, then IP was performed using anti-FLAG antibody and samples were processed as described. All blots were quantified by densitometry using ImageJ software. Poly(ADP-Ribose) detection was performed as previously described with slight modifications (Bai et al., PARP-1 inhibition increases mitochondrial metabolism through SIRT1 activation. Cell Metab 13, 461-468. (2011)) Briefly, PAR was detected by using a monoclonal anti-PAR antibody (Alexis, Lausanne Switzerland) by Western blotting of total protein lysates, using either […] of total worm protein lysates, […] of liver protein lysate or 200 g of muscle total protein extracts. PGC-1 acetylation was determined using PGC-1 immunoprecipitates from 2 mg of protein extracts, as described in Canto et al. (Canto et al., AMPK regulates energy expenditure by modulating NAD+ metabolism and SIRT1 activity. Nature 458, 1056 (2009)).
NAD^+ NAM Determination. NAD^+ levels in cultured cells were determined using a commercial kit (Enzychrom™, BioAssays Systems, CA). For tissue samples NAD^+ and NAM levels were determined as described in (Sauve et al., 2005). In brief, to a weighed aliquot of frozen pulverized tissue we added as standards, ^18O-NAD^+ (typically 2.00 nmol) and ^18O-NAM (typically 2.00 nmol). 70 L of ice-cold 7% perchloric acid was then added and the sample was vortexed and sonicated three times, then centrifuged. Clear supernatant was removed and neutralized by additions of 3 M NaOH and 1 M phosphate buffer (pH=9), then centrifuged. Clear supernatant was injected onto HPLC C-18 column with 20 mM ammonium acetate eluent to separate NAD^+ and NAM from other cellular components, NAD^+ and NAM peaks (260 nm absorbance) were collected. Collections were lyophilized to dryness and subjected to MALDI-TOF analysis. For NAD^+ measurement, ratio of intensities for m/z=664 and 666 peaks, corresponding to ^16O- and ^18O-NAD^+ isotopomers, was multiplied by 2.00 nmol and then divided by tissue weight to determine NAD+ concentration in the sample. […]

NC(=O)c1ccc[n+]([C@@H]2O[C@H](CO)[C@@H](O)[C@H]2O)c1 [NR, nicotinamide riboside]
NAD+ levels in liver and muscle (CD and HFD, chronic NR 400 mg/kg/day): increased NAD^+ levels
NAD+ in BAT (chronic NR 400 mg/kg/day): higher in the BAT of NR-fed mice, but only on HFD
NAD+ levels in brain or white adipose tissue (WAT) (chronic NR 400 mg/kg/day): but not in others, such as brain or white adipose tissue (WAT)
NADH levels in muscle (gastrocnemius, HFD 16 weeks): largely diminished
nicotinamide (NAM) levels in muscle (gastrocnemius, HFD 16 weeks): largely diminished
Nampt mRNA and protein levels (quadriceps, HFD 16 weeks): levels were also similar
mRNA expression of NMNAT enzymes (quadriceps, HFD 16 weeks): could not detect differences
